Measurements published in patent US7511074B2, “Tetrafluorobenzyl derivatives and pharmaceutical composition for preventing and treating acute and chronic neurodegenerative diseases in central nervous system containing the same” (AmKor Pharma, Inc., priority 2002, dated 2009).

tested on: Mouse cortical cell cultures; experiment: FeCl2-induced free radical neurotoxicity in mixed cortical cell cultures (LDH assay); format: cell-based; conditions: continuous 50 μM FeCl2; 1-30 μM; LDH 24 hr later
Method: (§1) Mouse cortical cell cultures (DIV 12-14) were exposed to continuously to 50 μM Fe^2+, alone or with inclusion of 0.1-100 μM 2-Hydroxy-TTBA (●) or trolox (◯), a membrane-permeable form of vitamin E). Neuronal death was analyzed 24 hr later by measuring levels of LDH released into the bathing medium, mean ±SEM (n=9-12 culture wells per condition), scaled to mean LDH efflux value 24 hr after sham wash (=0) and continuous exposure to 500 μM NMDA (=100). *, Significant difference from the vehicle control, p<0.05 using ANOVA and Student-Neuman-Keuls' test.
as §1, with “alone (♦)” for “alone”, “1-30” for “0.1-100”, “2-Hydroxy-TTS (●), 2-Hydroxy-TTA (◯), 2-Chloro-TTP (▾), 2-Ethan-TTBA (∇), 2-Propan-TTBA (▪),” for “2-Hydroxy-TTBA (●)”, “2-Cyclohexan-TTBA (□).” for “trolox (◯), a membrane-permeable form of vitamin E).”
(§2) For mixed neuron-glia culture, mouse cerebral cortices were removed from brains of the 14-16 day-old-fetal mice (E14-16), gently triturated and plated on 24 well plates (2×10^5 cells/plate) precoated with 100 μg/ml poly-D-lysine and 4 μg/ml laminine. Cultures were maintained at 37° C. in a humidified 5% CO2 atmosphere. Plating media consist of Eagles minimal essential media (MEM, Earles salts, supplied glutamine-free) supplemented with 5% horse serum, 5% fetal bovine serum, 26.5 mM bicarbonate, 2 mM glutamine, and 21 mM glucose.
(§3) After 7-8 days in vitro (DIV 7-8), 10 μM cytosine arabinofuranoside (Ara-C) was included to halt overgrowth of glia. The drug treatment was carried on DIV 12-15 cortical cell culture. Overall neuronal cell injury was assessed by measuring amount of lactate dehydrogenase (LDH) released into the bathing medium 24 hr after neurotoxic insults as previously described [Koh and Choi, J Neurosci Methods 20:83-90, 1987].
Mixed cortical cell cultures (DIV 13-15) were continuously exposed to 50 μM FeCl2, which produces hydroxyl radical via a Fenton reaction, alone or with inclusion of 2-Hydroxy-TTBA, 2-Hydroxy-TTA, 2-Hydroxy-TTS, 2-Chloro-TTP, 2-Ethan-TTBA, 2-Propan-TTBA, 2-Cyclohexan-TTBA or trolox (a vitamin E analogue) at indicated doses. Neuronal cell death was analyzed 24 hr later by LDH assay as described above. *, Significant difference from the vehicle control (FeCl2), p<0.05 using ANOVA and Student-Neuman-Keuls' test.

SMILES | neuroprotective effect compared with trolox against FeCl2-induced free radical neurotoxicity
Oc1ccc(NCc2c(F)c(F)c(C(F)(F)F)c(F)c2F)cc1Cl [2-Chloro-TTP, 2-chloro-4-(2,3,5,6-tetrafluoro-4-trifluoromethylbenzylamino)phenol] | much stronger neuroprotective effects than trolox
O=C(O)c1cc(NCc2c(F)c(F)c(C(F)(F)F)c(F)c2F)ccc1OC(=O)C1CCCCC1 [2-Cyclohexan-TTBA, 2-cyclohexanecarbonyloxy-5-(2,3,5,6-tetrafluoro-4-trifluoromethylbenzylamino)benzoic acid] | much stronger neuroprotective effects than trolox
CC(=O)Oc1ccc(NCc2c(F)c(F)c(C(F)(F)F)c(F)c2F)cc1C(=O)O [2-Ethan-TTBA, 2-ethanoyloxy-5-(2,3,5,6-tetrafluoro-4-trifluoromethylbenzylamino)benzoic acid] | much stronger neuroprotective effects than trolox
NC(=O)c1cc(NCc2c(F)c(F)c(C(F)(F)F)c(F)c2F)ccc1O [2-Hydroxy-TTA, 2-hydroxy-5-(2,3,5,6-tetrafluoro-4-trifluoromethylbenzylamino)benzamide] | much stronger neuroprotective effects than trolox
O=S(=O)(O)c1cc(NCc2c(F)c(F)c(C(F)(F)F)c(F)c2F)ccc1O [2-Hydroxy-TTS, 2-hydroxy-5-(2,3,5,6-tetrafluoro-4-trifluoromethylbenzylamino)benzene sulfonic acid] | much stronger neuroprotective effects than trolox
CCC(=O)Oc1ccc(NCc2c(F)c(F)c(C(F)(F)F)c(F)c2F)cc1C(=O)O [2-Propan-TTBA, 2-propanoyloxy-5-(2,3,5,6-tetrafluoro-4-trifluoromethylbenzylamino)benzoic acid] | much stronger neuroprotective effects than trolox

same assay, conditions: continuous 50 μM FeCl2; LDH 24 hr later

SMILES | prevention of FeCl2-induced free radical neurotoxicity
Cc1c(C)c2c(c(C)c1O)CCC(C)(C(=O)O)O2 (stereo not drawn) [trolox, reference compound] | prevented FeCl2-induced free radical neurotoxicity in a dose-dependent manner

tested on: Mouse cortical cell cultures; experiment: SNP (sodium nitroprusside) cytotoxicity in mixed cortical cell cultures (LDH assay); format: cell-based; conditions: continuous 5 μM SNP; LDH 24 hr later
Method: as §1, with “continuously 5” for “continuously to 50”, “μM sodium nitroprusside (SNP),” for “μM Fe^2+,”, “alone (●)” for “alone”, “of 0.1-10 mM aspirin (◯), 1-100 μM trolox (▾), or 0.1-10” for “of 0.1-100”, “2-Hydroxy-TTBA (∇).” for “2-Hydroxy-TTBA (●) or trolox (◯), a membrane-permeable form of vitamin E).”
as §2, §3
Mixed cortical cell cultures were continuously exposed to 5 μM SNP, a nitric oxide (NO) donor, alone or with inclusion of 0.1-10 μM 2-Hydroxy-TTBA, 1-10 μM trolox or 100-10,000 μM aspirin. Neuronal cell death was analyzed 24 hr later by LDH assay. *, Significant difference from the vehicle control (SNP), p<0.05 using ANOVA and Student-Neuman-Keuls' test.

SMILES | effect on SNP toxicity
CC(=O)Oc1ccccc1C(=O)O [Aspirin, aspirin, reference compound] | did not reduce SNP cytotoxicity
Cc1c(C)c2c(c(C)c1O)CCC(C)(C(=O)O)O2 (stereo not drawn) [trolox, reference compound] | completely blocked

tested on: not given; experiment: not given; conditions: not given

melting point [°C] | SMILES
121 | O=C(O)c1cc(NCc2c(F)c(F)c(C(F)(F)F)c(F)c2F)ccc1[N+](=O)[O-] [Synthesis Example 2, 2-nitro-5-(2,3,5,6-tetrafluoro-4-trifluoromethylbenzylamino)benzoic acid]
58 | O=C(O)c1cc(NCc2c(F)c(F)c(C(F)(F)F)c(F)c2F)ccc1Cl [Synthesis Example 3, 2-chloro-5-(2,3,5,6-tetrafluoro-4-trifluoromethylbenzylamino)benzoic acid]
70 | O=C(O)c1cc(NCc2c(F)c(F)c(C(F)(F)F)c(F)c2F)ccc1Br [Synthesis Example 4, 2-bromo-5-(2,3,5,6-tetrafluoro-4-trifluoromethylbenzylamino)benzoic acid]
212 | Cc1c(F)c(F)c(CNc2ccc(O)c(C(=O)O)c2)c(F)c1F [Synthesis Example 5, 2-hydroxy-5-(2,3,5,6-tetrafluoro-4-methylbenzylamino)benzoic acid]
84 | Cc1ccc(NCc2c(F)c(F)c(C(F)(F)F)c(F)c2F)cc1C(=O)O [Synthesis Example 6, 2-methyl-5-(2,3,5,6-tetrafluoro-4-trifluoromethylbenzylamino)benzoic acid]
94 | COc1ccc(NCc2c(F)c(F)c(C(F)(F)F)c(F)c2F)cc1C(=O)O [Synthesis Example 7, 2-methoxy-5-(2,3,5,6-tetrafluoro-4-trifluoromethylbenzylamino)benzoic acid]
38 | O=C(O)c1cc(NCc2c(F)c(F)c(C(F)(F)F)c(F)c2F)ccc1OC(F)(F)F [Synthesis Example 8, 5-(2,3,5,6-tetrafluoro-4-trifluoromethylbenzylamino)-2-trifluoromethoxybenzoic acid]
126 to 128 | O=[N+]([O-])c1cc(NCc2c(F)c(F)c(C(F)(F)F)c(F)c2F)ccc1O [Synthesis Example 9, 2-nitro-4-(2,3,5,6-tetrafluoro-4-trifluoromethylbenzylamino)phenol]
127 | COC(=O)c1cc(NCc2c(F)c(F)c(C(F)(F)F)c(F)c2F)ccc1O [Synthesis Example 13, methyl 2-hydroxy-5-(2,3,5,6-tetrafluoro-4-trifluoromethylbenzylamino)benzoate]
